Measurements as given in PubChem BioAssay AID192 (DTP/NCI, 2004).
Where “and” joins values, the source holds several entries; their conditions need not be identical. Identical values can stand only once. Inconclusive results and toxic doses are left out.

Tested on: BDF1 mice, B16 melanoma ip, median survival T/C
Assay: NCI In Vivo Anticancer Drug Screen. Data for tumor model B16 Melanoma (intraperitoneal) in B6D2F1 (BDF1) mice
Settings: endpoint: median survival time, higher = longer survival
Summary of the method: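 The ratio T/C compares compound-treated mice with vehicle-treated controls, using survival or tumor size as the endpoint in a transplantable tumor model.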

[1] = dose: 100.0 mg/kg/injection, schedule: Q04DX003 (ip), vehicle: saline
[2] = dose: 1.56 mg/kg/injection, schedule: Q01DX009 (ip), vehicle: saline
[3] = dose: 12.5 mg/kg/injection, schedule: Q01DX009 (ip), vehicle: saline with Tween-80
[4] = dose: 25.0 mg/kg/injection, schedule: Q01DX009 (ip), vehicle: saline with Tween-80
[5] = dose: 12.5 mg/kg/injection, schedule: Q01DX009 (ip), vehicle: saline
[6] = dose: 25.0 mg/kg/injection, schedule: Q01DX009 (ip), vehicle: saline
[7] = dose: 50.0 mg/kg/injection, schedule: Q01DX009 (ip), vehicle: saline
[8] = dose: 100.0 mg/kg/injection, schedule: Q01DX009 (ip), vehicle: Klucel (hydroxypropylcellulose) (HPC)
[9] = dose: 200.0 mg/kg/injection, schedule: Q01DX009 (ip), vehicle: Klucel (hydroxypropylcellulose) (HPC)
[10] = dose: 6.25 mg/kg/injection, schedule: Q01DX009 (ip), vehicle: saline
[11] = dose: 100.0 mg/kg/injection, schedule: Q01DX009 (ip), vehicle: saline
[12] = dose: 100.0 mg/kg/injection, schedule: Q01DX009 (ip), vehicle: saline with Tween-80
[13] = dose: 200.0 mg/kg/injection, schedule: Q01DX009 (ip), vehicle: saline with Tween-80
[14] = dose: 50.0 mg/kg/injection, schedule: Q01DX009 (ip), vehicle: saline with Tween-80
[15] = dose: 200.0 mg/kg/injection, schedule: Q01DX009 (ip), vehicle: saline

## CS(=O)(=O)OCCCNCCCOS(C)(=O)=O
dose: 1.25 mg/kg/injection, schedule: Q01DX009 (ip), vehicle: saline
  T/C: 103 % of control
dose: 2.5 mg/kg/injection, schedule: Q01DX009 (ip), vehicle: saline
  T/C: 110 % of control
dose: 5.0 mg/kg/injection, schedule: Q01DX009 (ip), vehicle: saline
  T/C: 123 % of control
dose: 10.0 mg/kg/injection, schedule: Q01DX009 (ip), vehicle: saline
  T/C: 159 % of control
dose: 20.0 mg/kg/injection, schedule: Q01DX009 (ip), vehicle: saline
  T/C: 161 % of control and 175 % of control and 202 % of control
dose: 30.0 mg/kg/injection, schedule: Q01DX009 (ip), vehicle: saline
  T/C: 189 % of control
dose: 40.0 mg/kg/injection, schedule: Q01DX009 (ip), vehicle: saline
  T/C: 201 % of control and 215 % of control and 271 % of control
dose: 60.0 mg/kg/injection, schedule: Q01DX009 (ip), vehicle: saline
  T/C: 228 % of control

## C=CCOCC(O)CN(C)CCCC (stereo not drawn)
dose: 50.0 mg/kg/injection, schedule: Q04DX003 (ip), vehicle: saline
  T/C: 108 % of control
[1]
  T/C: 108 % of control

## CC1=C(C)C(=O)O[C@@H]([C@](C)(O)[C@]2(O)CC[C@@]3(O)[C@@H]4C[C@H]5O[C@]56CC=CC(=O)[C@]6(C)[C@H]4CC[C@]23C)C1
dose: 0.78 mg/kg/injection, schedule: Q01DX009 (ip), vehicle: saline
  T/C: 102 % of control
[2]
  T/C: 114 % of control

## FC(F)(F)C(F)(Cl)C(Cl)(Cl)C(F)(F)F (stereo not drawn)
[1]
  T/C: 92 % of control
dose: 200.0 mg/kg/injection, schedule: Q04DX003 (ip), vehicle: saline
  T/C: 104 % of control
dose: 400.0 mg/kg/injection, schedule: Q04DX003 (ip), vehicle: saline
  T/C: 97 % of control

## O=C(O)CC(=O)O.[NH-]C1CCCCC1[NH-].[Pt+2] (stereo not drawn)
dose: 10.0 mg/kg/injection, schedule: Q01DX009 (ip), vehicle: dextrose
  T/C: 150 % of control
dose: 12.5 mg/kg/injection, schedule: Q01DX009 (ip), vehicle: dextrose
  T/C: 196 % of control
dose: 24.0 mg/kg/injection, schedule: Q01DX009 (ip), vehicle: other
  T/C: 150 % of control
dose: 25.0 mg/kg/injection, schedule: Q01DX009 (ip), vehicle: dextrose
  T/C: 163 % of control

## O=C1N=C(Oc2ccccc2)SC1=O
[3]
  T/C: 101 % of control
[4]
  T/C: 96 % of control

## NNc1ncnc2nc[nH]c12
[5]
  T/C: 108 % of control
[6]
  T/C: 120 % of control
[7]
  T/C: 100 % of control

## N/C(=N\N=C\c1ccc(-c2ccccc2)cc1)N[N+](=O)[O-]
dose: 25.0 mg/kg/injection, schedule: Q01DX009 (ip), vehicle: Klucel (hydroxypropylcellulose) (HPC)
  T/C: 93 % of control
dose: 50.0 mg/kg/injection, schedule: Q01DX009 (ip), vehicle: Klucel (hydroxypropylcellulose) (HPC)
  T/C: 90 % of control
[8]
  T/C: 93 % of control
[9]
  T/C: 86 % of control

## CC12C=CC3(CCC4C(C)(C)C(O)C(=O)CC4(C)C3CC1=O)C2 (stereo not drawn)
[8]
  T/C: 97 % of control
[9]
  T/C: 89 % of control
dose: 400.0 mg/kg/injection, schedule: Q01DX009 (ip), vehicle: Klucel (hydroxypropylcellulose) (HPC)
  T/C: 94 % of control

## CC#CCOCC(O)CO (stereo not drawn)
dose: 12.5 mg/kg/injection, schedule: Q01DX009 (ip), vehicle: water
  T/C: 105 % of control
dose: 25.0 mg/kg/injection, schedule: Q01DX009 (ip), vehicle: water
  T/C: 93 % of control
dose: 50.0 mg/kg/injection, schedule: Q01DX009 (ip), vehicle: water
  T/C: 113 % of control
dose: 100.0 mg/kg/injection, schedule: Q01DX009 (ip), vehicle: water
  T/C: 114 % of control

## CS(=O)(=O)Nc1ccccc1N
[2]
  T/C: 95 % of control
dose: 3.12 mg/kg/injection, schedule: Q01DX009 (ip), vehicle: saline
  T/C: 99 % of control
[10]
  T/C: 98 % of control

## Cc1ccc2c(ccc3c[n+]4ccccc4c(C)c32)c1
dose: 1.25 mg/kg/injection, schedule: Q01DX009 (ip), vehicle: saline with Tween-80
  T/C: 95 % of control
dose: 2.5 mg/kg/injection, schedule: Q01DX009 (ip), vehicle: saline with Tween-80
  T/C: 95 % of control and 102 % of control
dose: 5.0 mg/kg/injection, schedule: Q01DX009 (ip), vehicle: saline with Tween-80
  T/C: 90 % of control and 102 % of control

## CCN(CC)CCOC(=O)N(c1ccccc1)c1ccccc1
[10]
  T/C: 104 % of control
[5]
  T/C: 100 % of control
[6]
  T/C: 104 % of control
[7]
  T/C: 95 % of control
[11]
  T/C: 86 % of control

## CC(Oc1ccccc1)C(=O)c1ccccc1 (stereo not drawn)
[12]
  T/C: 90 % of control
[13]
  T/C: 90 % of control
dose: 400.0 mg/kg/injection, schedule: Q01DX009 (ip), vehicle: saline with Tween-80
  T/C: 93 % of control

## CC(C)(C)c1ccc(C(=O)C2CC2)cc1
[4]
  T/C: 94 % of control
[14]
  T/C: 99 % of control
[12]
  T/C: 95 % of control

## O=C(NC1CCc2ccccc21)c1ccccc1 (stereo not drawn)
dose: 6.25 mg/kg/injection, schedule: Q01DX009 (ip), vehicle: saline with Tween-80
  T/C: 100 % of control
[3]
  T/C: 92 % of control
[4]
  T/C: 91 % of control and 95 % of control
[12]
  T/C: 90 % of control

## COC(=O)c1ccccc1C=C(c1ccc([N+](=O)[O-])cc1)c1ccc([N+](=O)[O-])cc1
[14]
  T/C: 97 % of control
[12]
  T/C: 113 % of control
[13]
  T/C: 91 % of control

## CCC(C)Sc1nc(N)nc2c1ncn2C1OC(CO)C(O)C1O (stereo not drawn)
dose: 37.5 mg/kg/injection, schedule: Q01DX009 (ip), vehicle: Klucel (hydroxypropylcellulose) (HPC)
  T/C: 113 % of control
dose: 75.0 mg/kg/injection, schedule: Q01DX009 (ip), vehicle: Klucel (hydroxypropylcellulose) (HPC)
  T/C: 99 % of control
dose: 150.0 mg/kg/injection, schedule: Q01DX009 (ip), vehicle: Klucel (hydroxypropylcellulose) (HPC)
  T/C: 89 % of control

## NC(=S)N/N=C/c1ccc(O)cn1
dose: 9.4 mg/kg/injection, schedule: Q01DX009 (ip), vehicle: saline with Tween-80
  T/C: 103 % of control
[5]
  T/C: 108 % of control
dose: 18.8 mg/kg/injection, schedule: Q01DX009 (ip), vehicle: saline with Tween-80
  T/C: 102 % of control and 119 % of control and 121 % of control
[6]
  T/C: 110 % of control
dose: 37.5 mg/kg/injection, schedule: Q01DX009 (ip), vehicle: saline with Tween-80
  T/C: 109 % of control and 111 % of control and 120 % of control
[7]
  T/C: 113 % of control and 122 % of control
dose: 75.0 mg/kg/injection, schedule: Q01DX009 (ip), vehicle: saline with Tween-80
  T/C: 114 % of control and 121 % of control and 124 % of control
[11]
  T/C: 115 % of control and 120 % of control
dose: 150.0 mg/kg/injection, schedule: Q01DX009 (ip), vehicle: saline with Tween-80
  T/C: 105 % of control and 115 % of control

## c1ccc(-c2nc(N3CCOCC3)nc3ccccc23)cc1
dose: 100.0 mg/kg/injection, schedule: Q04DX003 (ip), vehicle: saline with Tween-80
  T/C: 104 % of control
dose: 200.0 mg/kg/injection, schedule: Q04DX003 (ip), vehicle: saline with Tween-80
  T/C: 88 % of control

## C[n+]1noc([O-])c1-c1ccccc1
[14]
  T/C: 101 % of control
[12]
  T/C: 97 % of control
[13]
  T/C: 103 % of control

## COc1cc(-c2ccc(N=Nc3cc(S(=O)(=O)O)c4ccccc4c3O)c(OC)c2)ccc1N=Nc1cc(S(=O)(=O)O)c2ccccc2c1O
[11]
  T/C: 102 % of control
[15]
  T/C: 89 % of control
dose: 400.0 mg/kg/injection, schedule: Q01DX009 (ip), vehicle: saline
  T/C: 93 % of control

## CN(C)NCCC#N
dose: 33.0 mg/kg/injection, schedule: Q01DX009 (ip), vehicle: saline
  T/C: 101 % of control
[7]
  T/C: 104 % of control
dose: 75.0 mg/kg/injection, schedule: Q01DX009 (ip), vehicle: saline
  T/C: 104 % of control and 206 % of control
dose: 113.0 mg/kg/injection, schedule: Q01DX009 (ip), vehicle: saline
  T/C: 100 % of control

## O=C(O)CCNCc1ccccc1
[5]
  T/C: 111 % of control
[7]
  T/C: 102 % of control
[11]
  T/C: 106 % of control
[15]
  T/C: 111 % of control

## ClC=P(c1ccccc1)(c1ccccc1)c1ccccc1
[3]
  T/C: 90 % of control
[4]
  T/C: 90 % of control
dose: 33.0 mg/kg/injection, schedule: Q04DX003 (ip), vehicle: saline with Tween-80
  T/C: 91 % of control
[14]
  T/C: 92 % of control and 95 % of control
dose: 50.0 mg/kg/injection, schedule: Q04DX003 (ip), vehicle: saline with Tween-80
  T/C: 152 % of control
dose: 75.0 mg/kg/injection, schedule: Q04DX003 (ip), vehicle: saline with Tween-80
  T/C: 86 % of control
